In patent US6723897B2, “Methods for controlling gibberellin levels” (Monsanto Technology, LLC, priority 1998, dated 2004):

How the values were obtained:
[1] = tested on: GA-deficient transgenic soybean line 719 (R5); experiment: Hilum treatment of soybean seeds, seedling growth and development, GA-deficient soybean; format: in vivo, Glycine max; design: key to Emergence timing / Hypocotyl length (6 DAP) / 1st internode length (12 DAP) / 3rd internode length (20 DAP) / 2nd internode length (12 DAP): pos: emergence faster/stem segment longer than controls; 0: emergence timing/stem segment length similar to controls; neg: emergence slower/stem segment shorter than controls; conditions: for Lowest rate where biological activity is observed, 1st internode length (10 DAP) / Lowest rate where biological activity is observed, emergence timing / Lowest rate where biological activity is observed, hypocotyl length (5 DAP) / 1st internode length (12 DAP) / Emergence timing / Hypocotyl length (6 DAP): L719, hilum treatment; for Lowest rate where biological activity is observed, 1st internode length (10 DAP) / Lowest rate where biological activity is observed, emergence timing / Lowest rate where biological activity is observed, hypocotyl length (5 DAP): rate response; for 1st internode length (12 DAP) / Emergence timing / Hypocotyl length (6 DAP): single rate per compound 8.3-16.5 μg/seed; for activity on line 719 in terms of emergence timing and hypocotyl length: single rate, hilum, concentration that does not affect normal plant tissue
Protocol: (§1) In the previous experiments, the effect of various GA compounds on transgenic, GA-deficient and wild-type soybean is evaluated by treating seeds with these compounds via imbibition. Several of these compounds are not completely soluble in water, which limited the interpretation of their utility in rescuing GA-deficient dwarf plants. The purpose of this experiment is to reevaluate selected, previously tested compounds, and additional compounds, by introducing them to the seed via the hilum. As shown by the results presented below, direct application of small quantities of GA compounds dissolved in an organic solvent to the hilum is an effective method of treating soybean seeds. As in the previously described experiments, comparison is made between activity on GA-deficient soybean seedlings and normal (wild-type) seedlings. […] soybean seeds are supplied by Asgrow Seed Company (Des Moines, Iowa). Seed of GA-deficient transgenic soybean line 719 is created by transformation of […] soybean with pMON29801 (FMV/antisense CPScc). Fifth generation seed (R5) is used for these experiments. […] When multiple droplets are applied, each 1 μl droplet is allowed to dry before subsequent droplets are added. Ethanol minus compound is used a treatment control. […] (29° C.) and 75° F. (24° C.), respectively. Emergence timing is measured by counting the number of emerged seedlings at different times after planting. Emergence is defined as the presence of cotyledons raised to soil level or above. […] To assess the ability of a seed treatment to deliver biological activity beyond the first internode, measurements are taken on selected treatments after prolonged growth and development.

[2] = Particulate material present in solutions after mixing; format: physicochemical; conditions: for Particulate material present, 100X Diln w/water: 0.25 mg/ml compound in water; for solubility in water during imbibition: 0.25 mg/ml treatment solutions; for Particulate material present, Initial Mixing: 25 mg/ml in absolute ethanol
Protocol: Each of the compounds noted above is weighed to the nearest 0.1 mg in a pre-tarred 1.5-ml polypropylene vial with a screw-top lid. Absolute ethanol is added to the weighed powder to prepare a 25 mg/ml solution. Solutions are thoroughly mixed using a vortex mixer. A stainless steel spatula is used to crush any particulate material remaining after extensive mixing. Vials are left overnight at room temperature, and then remixed to form the concentrated ethanol stock solutions. The presence of undissolved material is noted throughout this procedure.

[3] = tested on: wild-type soybean line A3237; experiment: Experiment I greenhouse test, seed imbibition, wild-type soybean; conditions: 0.25 mg/ml; seeds imbibed 5 hours
Protocol: Compounds are first prepared as 25 mg/ml solutions in ethanol as described above, and then diluted into 40 ml of water to prepare the final 0.25 mg/ml treatment solutions. Visual observations on solubilities (milky, clear, etc.) of the treatment solutions are noted. The treatment solutions are divided into two 20 ml portions, each in 50 ml plastic centrifuge tubes. In addition to treating seeds with solutions containing the test compounds, untreated seeds and seeds imbibed in ethanol-water solution (300 μl ethanol in 30 mls of water) are also included in this experiment as controls. […]
(§2) After imbibition, seeds are removed from the test tubes, placed on wax paper to dry, and planted in bread pans containing farm soil amended with fertilizer at 20 seeds/pan. Seeds are covered with 0.5″ of vermiculite. Pans are transferred to the greenhouse, which had day/night temperatures of 86/68° F. (30/20° C.), and subirrigated. Illumination is at a light intensity of 300-400 μmolm^−2s^−1 photosynthetic photon flux; 16 hours light/8 hours dark. Subsequent waterings are also through sub-irrigation until the test is terminated three weeks later. Observations included the number of dwarf, intermediate, and tall plants; plant height; uniformity of rescue; and any visual effects.

[4] = tested on: constitutively GA-deficient transgenic dwarf soybeans (line 719); experiment: Summary of first two greenhouse experiments, rescue of GA-deficient soybeans; format: in vivo, Glycine max; design: key: +: transgenic soybeans are rescued; 0: transgenic soybeans are not rescued; conditions: 0.25 mg/ml solution (ethanol-water)
Protocol: (§3) Compounds are first prepared as 25 mg/ml solutions in ethanol as described above, and then diluted into 40 ml of water to prepare the final 0.25 mg/ml treatment solutions. Visual observations on solubilities (milky, clear, etc.) of the treatment solutions are noted. The treatment solutions are divided into two 20 ml portions, each in 50 ml plastic centrifuge tubes. In addition to treating seeds with solutions containing the test compounds, untreated seeds and seeds imbibed in ethanol-water solution (300 μl ethanol in 30 mls of water) are also included in this experiment as controls. In the latter case, 20 seeds are imbibed in 30 mls of solution for six hours.
as §2, with “Two soybean varieties are selected for testing: constitutively GA-deficient transgenic dwarf soybean line 719 (plasmid pMON29801, constitutive FMV promoter/asCPScc; which is a mixture of 719−2 and 719+17), and A3237, the wild-type parent material. […] After” for “After”
(§4) All compounds are tested at final concentrations of 0.25, 0.025, and 0.0025 mg/ml except for GA9, which is tested at 0.125, 0.0125, and 0.00125 mg/ml. (The compounds are tested in Experiment I at only one concentration, i.e., 0.25 mg/ml). Test tubes contained […] of ethanol solution per tube. Final volumes are made up to 30 ml with deionized water. After shaking, the treatment solutions (15 ml each) are transferred to each of two 50 ml test tubes. Treatments 1 to 27 are performed on wild-type line A3237; treatments 28 to 54 are performed on constitutively GA-deficient transgenic dwarf soybean line 719 (a mixture of 719−2 and 719+17). Twenty seeds are used in each treatment. Dry seed, ethanol/water-imbibed seed (1% ethanol in water, v/v), and water-imbibed seeds are included as controls. Seeds are imbibed for 6 hours in the test solutions, then planted in bread pans containing Metromix 350 (The Scotts Company, Marysville, Ohio), and covered with 0.5″ Metro-mix. Covered pans are transferred to the greenhouse and subirrigated. Illumination is at a light intensity of 300-400 μmolm^−2s^−1 photosynthetic photon flux; 16 hours light/8 hours dark. Subsequent waterings are also through sub-irrigation until the test is terminated three weeks later. Observations included the number of dwarf, intermediate, and tall plants; plant height; uniformity of rescue; and any visual effects. Digital photographs are also taken.

[5] = tested on: constitutively GA-deficient transgenic dwarf soybean line 719; experiment: Experiment I greenhouse test, seed imbibition, GA-deficient soybean; format: in vivo, Glycine max; design: Observation on Transgenic Line 719: key: −1: treated plants are shorter as compared to untreated plants; 0: treated plants had the same stature as untreated plants; 1: treated plants are slightly elongated as compared to untreated plants; 2: treated plants are moderately elongated as compared to untreated plants; 3: treated plants are highly elongated as compared to untreated plants; 4: treated plants are extremely elongated as compared to untreated plants; conditions: 0.25 mg/ml; for effect in both the constitutive transgenic dwarf and wild-type soybean lines: imbibition, lines 719 and A3237; for Observation on Transgenic Line 719: seeds imbibed 5 hours
Description: Seeds are covered with 0.5″ of vermiculite.

wild-type A3237 soybean = experiment: Hilum treatment of soybean seeds, seedling growth and development, wild-type soybean; format: in vivo, Glycine max; design: key to Emergence timing / Hypocotyl length (6 DAP) / 1st internode length (12 DAP) / 3rd internode length (20 DAP): pos: emergence faster/stem segment longer than controls; 0: emergence timing/stem segment length similar to controls; neg: emergence slower/stem segment shorter than controls; conditions: for Lowest rate where biological activity is observed, 1st internode length (10 DAP) / Lowest rate where biological activity is observed, emergence timing / Lowest rate where biological activity is observed, hypocotyl length (5 DAP): rate response; for 1st internode length (12 DAP) / Emergence timing / Hypocotyl length (6 DAP): single rate per compound 8.3-16.5 μg/seed
Protocol: as §1

[6] = tested on: GA-deficient (Line 719, R5) soybeans; experiment: Hilum treatment with GA15, GA19, GA24, GA44, hypocotyl length, GA-deficient soybean; format: in vivo, Glycine max; conditions: 10 μg/seed, 5 DAP
Description: Transgenic seeds are fifth generation (R5) line 719 seeds.

A3237 soybean = experiment: Stature of soybean plants with ancymidol soil drench; format: in vivo, Glycine max
Protocol: R1 lines are also evaluated for stature reduction, a key indicator of GA-deficiency in soybean. R1 seeds are grown as described above. Plant height is routinely measured at approximately one week after planting. Four lines (696, 719, 720 and 724) are identified that had overall stature reduction relative to the control (A3237) line and the control line plus ancymidol (10 mg/L), an inhibitor of GA (Table 3). As these are segregating from R1 seeds, the distribution stature of the plants is evaluated. Three lines (719, 720 and 724) have a population of strong dwarf soybean plants (<25% the height of the average control plant). The segregation ratio of R1 pMON29801 (FMV/asCPScc) (FIG. 7) soybean plants is checked by phenotype (stature) and for the expression of CP4 5-enolpyruvylshikimate-3-phosphate synthase by ELISA (Rogan et al., J. Food Control, in Press (1998)). The results for both of these analyses are fairly consistent (Table 4): Line 696 segregated at about 1:3, line 719 at about 1:2, line 720 at about 2:1 and line 724 at about 3:1. Thus, only line 724 is what could be considered normal Mendelian segregation.
In soybean, GAs increase through mid-seed development, and then decline as the seed matures (Birnberg et al. (1986) Plant Physiol. 82:241-246). This trend is similar to that observed in other legumes. […] This is supported by the following observations (data not shown). […] This is well after germination and axis elongation have begun. Both of these observations support the hypothesis that soybean seed germination and early axis elongation are not dependent on de novo gibberellin biosynthesis.

[7] = tested on: wild-type soybeans (line A3237); experiment: Summary of first two greenhouse experiments, elongation of wild-type soybeans; conditions: 0.25 mg/ml solution (ethanol-water)
Protocol: as §3
as §2, with “Two soybean varieties are selected for testing: constitutively GA-deficient transgenic dwarf soybean line 719 (plasmid pMON29801, constitutive FMV promoter/asCPScc; which is a mixture of 719−2 and 719+17), and A3237, the wild-type parent material. […] After” for “After”
as §4

| Compound | Lowest rate where biological activity is observed, 1st internode length (10 DAP) [1] [μg/seed] | Lowest rate where biological activity is observed, emergence timing [1] [μg/seed] | Lowest rate where biological activity is observed, hypocotyl length (5 DAP) [1] [μg/seed] | 1st internode length (12 DAP) [1] | Emergence timing [1] | Hypocotyl length (6 DAP) [1] | activity on line 719 in terms of emergence timing and hypocotyl length [1] | Particulate material present, 100X Diln w/water [2] | solubility in water during imbibition [2] | Particulate material present, Initial Mixing [2] | Observation on Wild-Type Line A3237 [3] | Rescue of GA-deficient soybeans [4] | effect in both the constitutive transgenic dwarf and wild-type soybean lines [5] | Observation on Transgenic Line 719 [5] | Lowest rate where biological activity is observed, 1st internode length (10 DAP) (wild-type A3237 soybean) [μg/seed] | Lowest rate where biological activity is observed, emergence timing (wild-type A3237 soybean) [μg/seed] | Lowest rate where biological activity is observed, hypocotyl length (5 DAP) (wild-type A3237 soybean) [μg/seed] | 1st internode length (12 DAP) (wild-type A3237 soybean) | Emergence timing (wild-type A3237 soybean) | Hypocotyl length (6 DAP) (wild-type A3237 soybean) | other results |
| --- | --- | --- | --- | --- | --- | --- | --- | --- | --- | --- | --- | --- | --- | --- | --- | --- | --- | --- | --- | --- | --- |
| C=C1C[C@@]23CC[C@H]4[C@@](C)(CCC[C@@]4(C)C(=O)O)[C@@H]2CC[C@]1(O)C3 (single isomer, unassigned; ent-7) [steviol] | >100 | 10 | 1 | 0 | pos | pos | biologically active | YES | less soluble in water during imbibition | YES | 0 | 0 | no substantial activity | 0 | >100 | >100 | >100 | 0 | 0 | 0 |  |
| C=C1C[C@]23C[C@H]1CC[C@H]2[C@]1(C)CCC[C@@](C)(C(=O)O)[C@H]1[C@@H]3C=O [GA12-aldehyde] | >100 | 1 | 1 | 0 | pos | pos | biologically active | YES | less soluble in water during imbibition |  | 0 | 0 | no substantial activity | 0 | >100 | >100 | >100 | 0 | 0 | 0 |  |
| C=C1C[C@]23C[C@@]1(O)CC[C@H]2[C@]1(C=O)CCC[C@@](C)(C(=O)O)[C@H]1[C@@H]3C(=O)O [GA19] |  |  |  |  |  |  |  |  |  |  |  |  |  |  |  |  |  |  |  |  | hypocotyl height of GA-deficient (Line 719) soybeans (FIG. 41) [6]: restored normal or greater hypocotyl height |
| COc1ccc(C(O)(c2cncnc2)C2CC2)cc1 (stereo not shown) [ancymidol] |  |  |  |  |  |  |  |  |  |  |  |  |  |  |  |  |  |  |  |  | Height (% of control) (A3237 soybean; 7 DAP, ancymidol 10 mg/L): 14 % of control; Frequency of heights relative to A3237 control (%), 0-25% (A3237 soybean; ancymidol soil drench 10 mg/L): 100%; Frequency of heights relative to A3237 control (%), 25-50% (A3237 soybean; ancymidol soil drench 10 mg/L): 0%; Frequency of heights relative to A3237 control (%), 50-75% (A3237 soybean; ancymidol soil drench 10 mg/L): 0%; Frequency of heights relative to A3237 control (%), 75-100% (A3237 soybean; ancymidol soil drench 10 mg/L): 0%; soybean axis elongation (A3237 soybean; first one to two days of growth, data not shown): does not reduce soybean axis elongation |
| C=C1C[C@@]23CC[C@@H]4C(C)(C)CCC[C@@]4(C)[C@@H]2CC[C@@H]1C3 [kaurene] |  |  |  | 0 | pos | 0 |  | YES | less soluble in water during imbibition | YES | 0 | 0 | no substantial activity | 0 |  |  |  | 0 | 0 | 0 | Particulate material present, O/N Incubation ([2]; 25 mg/ml in ethanol, overnight at room temperature, remixed): YES; Elongation of wild-type soybeans [7]: 0 |
